Source: PubChem BioAssay (NCI)
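Grown in 96-well plates, cells were treated for 48 hours with each compound at five concentrations. Insufficient inhibition: endpoint recorded as highest concentration tested. GI50 = concentration required for 50% inhibition of growth. At the TGI there is no net growth.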

How the values were obtained:
Test in all cases: NCI tumour cell line growth inhibition, 48 h
786-0 renal = tested on: 786-0 renal
A498 renal = tested on: A498 renal
A549 NSCLC = tested on: A549 NSCLC
ACHN renal = tested on: ACHN renal
BT-549 breast = tested on: BT-549 breast
CAKI-1 renal = tested on: CAKI-1 renal
CCRF-CEM leukemia = tested on: CCRF-CEM leukemia
COLO 205 colon = tested on: COLO 205 colon
DU-145 prostate = tested on: DU-145 prostate
EKVX NSCLC = tested on: EKVX NSCLC
HCC-2998 colon = tested on: HCC-2998 colon
HCT-116 colon = tested on: HCT-116 colon
HCT-15 colon = tested on: HCT-15 colon
HL-60(TB) leukemia = tested on: HL-60(TB) leukemia
HOP-62 NSCLC = tested on: HOP-62 NSCLC
HOP-92 NSCLC = tested on: HOP-92 NSCLC
HS 578T breast = tested on: HS 578T breast
HT29 colon = tested on: HT29 colon
IGROV1 ovarian = tested on: IGROV1 ovarian
K-562 leukemia = tested on: K-562 leukemia
KM12 colon = tested on: KM12 colon
LOX IMVI melanoma = tested on: LOX IMVI melanoma
M14 melanoma = tested on: M14 melanoma
MALME-3M melanoma = tested on: MALME-3M melanoma
MCF7 breast = tested on: MCF7 breast
MDA-MB-231 breast = tested on: MDA-MB-231 breast
MDA-MB-435 = tested on: MDA-MB-435
MOLT-4 leukemia = tested on: MOLT-4 leukemia
NCI-H226 lung = tested on: NCI-H226 lung

COc1ccc(/C=N/NC(=O)c2[nH]c3ccc(Br)cc3c2-c2ccccc2)o1
GI50 (786-0 renal): 353 nM | TGI (786-0 renal): 13700 nM | GI50 (A498 renal): 16700 nM | TGI (A498 renal): 37300 nM | GI50 (A549 NSCLC): 251 nM | TGI (A549 NSCLC): > 49900 nM | GI50 (ACHN renal): 203 nM | TGI (ACHN renal): 20700 nM | GI50 (BT-549 breast): 177 nM | TGI (BT-549 breast): 667 nM | GI50 (CAKI-1 renal): 295 nM | TGI (CAKI-1 renal): 21000 nM | GI50 (CCRF-CEM leukemia): 136 nM | TGI (CCRF-CEM leukemia): > 55200 nM | GI50 (COLO 205 colon): 196 nM | TGI (COLO 205 colon): 377 nM | GI50 (DU-145 prostate): 307 nM | TGI (DU-145 prostate): 14300 nM | GI50 (EKVX NSCLC): 968 nM | TGI (EKVX NSCLC): 29400 nM | GI50 (HCC-2998 colon): 382 nM | TGI (HCC-2998 colon): 14300 nM | GI50 (HCT-116 colon): 108 nM | TGI (HCT-116 colon): 1100 nM | GI50 (HCT-15 colon): 219 nM | TGI (HCT-15 colon): 3040 nM | GI50 (HL-60(TB) leukemia): 74.8 nM | TGI (HL-60(TB) leukemia): 265 nM | GI50 (HOP-62 NSCLC): 467 nM | TGI (HOP-62 NSCLC): 20800 nM | GI50 (HOP-92 NSCLC): 953 nM | TGI (HOP-92 NSCLC): 10100 nM | GI50 (HS 578T breast): 570 nM | TGI (HS 578T breast): 21000 nM | GI50 (HT29 colon): 66.6 nM | GI50 (IGROV1 ovarian): 314 nM | TGI (IGROV1 ovarian): 16700 nM | GI50 (K-562 leukemia): 55 nM | TGI (K-562 leukemia): > 72200 nM | GI50 (KM12 colon): 311 nM | TGI (KM12 colon): 4840 nM | GI50 (LOX IMVI melanoma): 35.4 nM | TGI (LOX IMVI melanoma): 12300 nM | GI50 (M14 melanoma): 299 nM | TGI (M14 melanoma): 15300 nM | GI50 (MALME-3M melanoma): 202 nM | TGI (MALME-3M melanoma): 17700 nM | GI50 (MCF7 breast): 90.7 nM | TGI (MCF7 breast): 11100 nM | GI50 (MDA-MB-231 breast): 148 nM | TGI (MDA-MB-231 breast): 2190 nM | GI50 (MDA-MB-435): 112 nM | TGI (MDA-MB-435): 303 nM | GI50 (MOLT-4 leukemia): 59.9 nM | TGI (MOLT-4 leukemia): 21900 nM | GI50 (NCI-H226 lung): 276 nM | TGI (NCI-H226 lung): 7950 nM
